In ChEMBL document CHEMBL1201862, “PubChem BioAssay data set” (2004):
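Each compound was tested at five concentrations against cells in 96-well plates for 48 hours. Abbreviation: GI50, concentration required for 50% inhibition of growth.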 Calls of active or inactive are those of the source. Rule as the data show it: active = GI50 up to about 1.1 µM and inactive = higher.

What was measured:
Assay in all cases: DTP human tumour cell line panel, 48 h
786-0 = system: 786-0
A498 = system: A498
A549 = system: A549
ACHN = system: ACHN
BT-549 = system: BT-549
CAKI-1 = system: CAKI-1
COLO 205 = system: COLO 205
DU-145 = system: DU-145
EKVX = system: EKVX
HCC 2998 = system: HCC 2998
HCT-116 = system: HCT-116
HCT-15 = system: HCT-15
HL-60 = system: HL-60
HOP-62 = system: HOP-62
HOP-92 = system: HOP-92
HT-29 = system: HT-29
Hs-578T = system: Hs-578T
IGROV-1 = system: IGROV-1
K562 = system: K562
KM12 = system: KM12
LOX IMVI = system: LOX IMVI
M14 = system: M14
MCF7 = system: MCF7
MDA-MB-231 = system: MDA-MB-231
MDA-MB-435 = system: MDA-MB-435
MDA-N = system: MDA-N
MOLT-4 = system: MOLT-4
Malme-3M = system: Malme-3M
NCI-H226 = system: NCI-H226
NCI-H23 = system: NCI-H23
NCI-H460 = system: NCI-H460
NCI-H522 = system: NCI-H522
NCI/ADR-RES = system: NCI/ADR-RES
OVCAR-3 = system: OVCAR-3
OVCAR-4 = system: OVCAR-4
OVCAR-5 = system: OVCAR-5
OVCAR-8 = system: OVCAR-8
PC-3 = system: PC-3
RXF 393 = system: RXF 393
SF-268 = system: SF-268
SF-295 = system: SF-295
SF-539 = system: SF-539
SK-MEL-28 = system: SK-MEL-28
SK-MEL-2 = system: SK-MEL-2
SK-MEL-5 = system: SK-MEL-5
SK-OV-3 = system: SK-OV-3
SN12C = system: SN12C
SNB-19 = system: SNB-19
SNB-75 = system: SNB-75
SW-620 = system: SW-620
T47D = system: T47D
TK-10 = system: TK-10
U-251 = system: U-251
UACC-257 = system: UACC-257
UACC-62 = system: UACC-62
UO-31 = system: UO-31
CCRF-CEM = system: CCRF-CEM
RPMI-8226 = system: RPMI-8226

SMILES: OCCOCn1nncc1Cn1ncc2c(SCc3ccccc3)ncnc21
- GI50 (786-0): 34.7 µM (inactive)
- GI50 (A498): > 100 µM (inactive)
- GI50 (A549): > 100 µM (inactive)
- GI50 (ACHN): > 100 µM (inactive)
- GI50 (BT-549): > 100 µM (inactive)
- GI50 (CAKI-1): > 100 µM (inactive)
- GI50 (COLO 205): > 100 µM (inactive)
- GI50 (DU-145): > 100 µM (inactive)
- GI50 (EKVX): > 100 µM (inactive)
- GI50 (HCC 2998): > 100 µM (inactive)
- GI50 (HCT-116): 45.9 µM (inactive)
- GI50 (HCT-15): 57.3 µM
- GI50 (HL-60): 16.5 µM (inactive)
- GI50 (HOP-62): > 100 µM (inactive)
- GI50 (HOP-92): 80.9 µM (inactive)
- GI50 (HT-29): 37.7 µM (inactive)
- GI50 (Hs-578T): > 100 µM (inactive)
- GI50 (IGROV-1): 51.1 µM (inactive)
- GI50 (K562): 37.7 µM (inactive)
- GI50 (KM12): > 100 µM (inactive)
- GI50 (LOX IMVI): 35.5 µM (inactive)
- GI50 (M14): 59.3 µM (inactive)
- GI50 (MCF7): 49.3 µM (inactive)
- GI50 (MDA-MB-231): > 100 µM (inactive)
- GI50 (MDA-MB-435): 45.9 µM (inactive)
- GI50 (MDA-N): 54.7 µM (inactive)
- GI50 (MOLT-4): 6.19 µM (inactive)
- GI50 (Malme-3M): > 100 µM (inactive)
- GI50 (NCI-H226): > 100 µM (inactive)
- GI50 (NCI-H23): > 100 µM (inactive)
- GI50 (NCI-H460): > 100 µM (inactive)
- GI50 (NCI-H522): 42.8 µM (inactive)
- GI50 (NCI/ADR-RES): > 100 µM (inactive)
- GI50 (OVCAR-3): > 100 µM (inactive)
- GI50 (OVCAR-4): 88.5 µM (inactive)
- GI50 (OVCAR-5): > 100 µM (inactive)
- GI50 (OVCAR-8): 64 µM (inactive)
- GI50 (PC-3): 94.8 µM (inactive)
- GI50 (RXF 393): > 100 µM (inactive)
- GI50 (SF-268): > 100 µM (inactive)
- GI50 (SF-295): > 100 µM (inactive)
- GI50 (SF-539): 65 µM (inactive)
- GI50 (SK-MEL-28): > 100 µM (inactive)
- GI50 (SK-MEL-2): > 100 µM (inactive)
- GI50 (SK-MEL-5): > 100 µM (inactive)
- GI50 (SK-OV-3): > 100 µM (inactive)
- GI50 (SN12C): 59.4 µM (inactive)
- GI50 (SNB-19): > 100 µM (inactive)
- GI50 (SNB-75): 60.4 µM (inactive)
- GI50 (SW-620): 15.6 µM (inactive)
- GI50 (T47D): 80.2 µM (inactive)
- GI50 (TK-10): > 100 µM (inactive)
- GI50 (U-251): > 100 µM (inactive)
- GI50 (UACC-257): > 100 µM (inactive)
- GI50 (UACC-62): > 100 µM (inactive)
- GI50 (UO-31): 66.7 µM (inactive)

SMILES: S=c1[nH]c2c(Cl)c(Cl)c(Cl)c(Cl)c2[nH]1
- GI50 (786-0): 26.2 µM (inactive)
- GI50 (A498): 22.2 µM (inactive)
- GI50 (A549): 25.2 µM (inactive)
- GI50 (ACHN): 15.8 µM (inactive)
- GI50 (BT-549): 17.9 µM (inactive)
- GI50 (CAKI-1): 25.7 µM (inactive)
- GI50 (CCRF-CEM): 1.16 µM (inactive)
- GI50 (COLO 205): 17.2 µM (inactive)
- GI50 (DU-145): 36.1 µM (inactive)
- GI50 (EKVX): 11.8 µM (inactive)
- GI50 (HCC 2998): 0.955 µM (active)
- GI50 (HCT-116): 21.1 µM (inactive)
- GI50 (HCT-15): 22 µM
- GI50 (HL-60): 1.75 µM (inactive)
- GI50 (HOP-62): 25.1 µM (inactive)
- GI50 (HOP-92): 19.5 µM (inactive)
- GI50 (HT-29): 24 µM (inactive)
- GI50 (Hs-578T): 18.5 µM (inactive)
- GI50 (IGROV-1): 14.1 µM (inactive)
- GI50 (K562): 7.23 µM (inactive)
- GI50 (KM12): 15.5 µM (inactive)
- GI50 (LOX IMVI): 8.69 µM (inactive)
- GI50 (M14): 21.4 µM (inactive)
- GI50 (MCF7): 16.8 µM (inactive)
- GI50 (MDA-MB-231): 17.8 µM (inactive)
- GI50 (MDA-MB-435): 17.5 µM (inactive)
- GI50 (MDA-N): 17.3 µM (inactive)
- GI50 (MOLT-4): 4.8 µM (inactive)
- GI50 (Malme-3M): 14.9 µM (inactive)
- GI50 (NCI-H23): 29.2 µM (inactive)
- GI50 (NCI-H460): 19.4 µM (inactive)
- GI50 (NCI-H522): 1.2 µM (inactive)
- GI50 (NCI/ADR-RES): 18.5 µM (inactive)
- GI50 (OVCAR-3): 26.7 µM (inactive)
- GI50 (OVCAR-4): 5.94 µM (inactive)
- GI50 (OVCAR-5): 25.8 µM (inactive)
- GI50 (OVCAR-8): 23.2 µM (inactive)
- GI50 (PC-3): 22.2 µM (inactive)
- GI50 (RPMI-8226): 3.52 µM (inactive)
- GI50 (RXF 393): 18.1 µM (inactive)
- GI50 (SF-268): 12.1 µM (inactive)
- GI50 (SF-295): 17.5 µM (inactive)
- GI50 (SF-539): 12.1 µM (inactive)
- GI50 (SK-MEL-5): 17.6 µM (inactive)
- GI50 (SK-OV-3): 20.1 µM (inactive)
- GI50 (SN12C): 20.6 µM (inactive)
- GI50 (SNB-19): 27.9 µM (inactive)
- GI50 (SW-620): 19.8 µM (inactive)
- GI50 (T47D): 52.5 µM (inactive)
- GI50 (TK-10): 22 µM (inactive)
- GI50 (U-251): 31.7 µM (inactive)
- GI50 (UACC-257): 19.4 µM (inactive)
- GI50 (UACC-62): 15.2 µM (inactive)
- GI50 (UO-31): 16 µM (inactive)

SMILES: COc1cc(OC)c(OC)cc1/C=C/c1ccccn1
- GI50 (786-0): > 10 µM (inactive)
- GI50 (A498): > 10 µM (inactive)
- GI50 (A549): > 10 µM (inactive)
- GI50 (ACHN): > 10 µM (inactive)
- GI50 (BT-549): > 10 µM (inactive)
- GI50 (CAKI-1): > 10 µM (inactive)
- GI50 (CCRF-CEM): > 10 µM (inactive)
- GI50 (COLO 205): > 10 µM (inactive)
- GI50 (DU-145): > 10 µM (inactive)
- GI50 (EKVX): > 10 µM (inactive)
- GI50 (HCC 2998): > 10 µM (inactive)
- GI50 (HCT-116): > 10 µM (inactive)
- GI50 (HCT-15): > 10 µM
- GI50 (HL-60): > 10 µM (inactive)
- GI50 (HOP-62): > 10 µM (inactive)
- GI50 (HOP-92): > 10 µM (inactive)
- GI50 (HT-29): > 10 µM (inactive)
- GI50 (Hs-578T): > 10 µM (inactive)
- GI50 (IGROV-1): > 10 µM (inactive)
- GI50 (K562): > 10 µM (inactive)
- GI50 (KM12): > 10 µM (inactive)
- GI50 (LOX IMVI): > 10 µM (inactive)
- GI50 (M14): > 10 µM (inactive)
- GI50 (MCF7): > 10 µM (inactive)
- GI50 (MDA-MB-231): > 10 µM (inactive)
- GI50 (MDA-MB-435): > 10 µM (inactive)
- GI50 (MDA-N): > 10 µM (inactive)
- GI50 (MOLT-4): > 10 µM (inactive)
- GI50 (Malme-3M): > 10 µM (inactive)
- GI50 (NCI-H226): > 10 µM (inactive)
- GI50 (NCI-H23): > 10 µM (inactive)
- GI50 (NCI-H460): > 10 µM (inactive)
- GI50 (NCI-H522): > 10 µM (inactive)
- GI50 (NCI/ADR-RES): > 10 µM (inactive)
- GI50 (OVCAR-3): > 10 µM (inactive)
- GI50 (OVCAR-4): > 10 µM (inactive)
- GI50 (OVCAR-5): > 10 µM (inactive)
- GI50 (OVCAR-8): > 10 µM (inactive)
- GI50 (PC-3): > 10 µM (inactive)
- GI50 (RXF 393): > 10 µM (inactive)
- GI50 (SF-268): > 10 µM (inactive)
- GI50 (SF-295): > 10 µM (inactive)
- GI50 (SF-539): > 10 µM (inactive)
- GI50 (SK-MEL-28): > 10 µM (inactive)
- GI50 (SK-MEL-2): > 10 µM (inactive)
- GI50 (SK-MEL-5): > 10 µM (inactive)
- GI50 (SK-OV-3): > 10 µM (inactive)
- GI50 (SN12C): > 10 µM (inactive)
- GI50 (SNB-19): > 10 µM (inactive)
- GI50 (SNB-75): > 10 µM (inactive)
- GI50 (SW-620): > 10 µM (inactive)
- GI50 (T47D): > 10 µM (inactive)
- GI50 (TK-10): > 10 µM (inactive)
- GI50 (U-251): > 10 µM (inactive)
- GI50 (UACC-257): > 10 µM (inactive)
- GI50 (UACC-62): > 10 µM (inactive)
- GI50 (UO-31): > 10 µM (inactive)
